In one assay the target is T1, 5-lipoxygenase (Rattus norvegicus, UniProt P12527).
T1 construct: supernatant fraction of Rat Basophilic Leukemia Cell Homogenate (RBL-1) serves as a 5-lipoxygenase enzyme source; endogenous in cells; host or cells: RBL-1 (rat basophilic leukemia) cells, 100,000×g supernatant of homogenate
T1 sequence (P12527 1-673): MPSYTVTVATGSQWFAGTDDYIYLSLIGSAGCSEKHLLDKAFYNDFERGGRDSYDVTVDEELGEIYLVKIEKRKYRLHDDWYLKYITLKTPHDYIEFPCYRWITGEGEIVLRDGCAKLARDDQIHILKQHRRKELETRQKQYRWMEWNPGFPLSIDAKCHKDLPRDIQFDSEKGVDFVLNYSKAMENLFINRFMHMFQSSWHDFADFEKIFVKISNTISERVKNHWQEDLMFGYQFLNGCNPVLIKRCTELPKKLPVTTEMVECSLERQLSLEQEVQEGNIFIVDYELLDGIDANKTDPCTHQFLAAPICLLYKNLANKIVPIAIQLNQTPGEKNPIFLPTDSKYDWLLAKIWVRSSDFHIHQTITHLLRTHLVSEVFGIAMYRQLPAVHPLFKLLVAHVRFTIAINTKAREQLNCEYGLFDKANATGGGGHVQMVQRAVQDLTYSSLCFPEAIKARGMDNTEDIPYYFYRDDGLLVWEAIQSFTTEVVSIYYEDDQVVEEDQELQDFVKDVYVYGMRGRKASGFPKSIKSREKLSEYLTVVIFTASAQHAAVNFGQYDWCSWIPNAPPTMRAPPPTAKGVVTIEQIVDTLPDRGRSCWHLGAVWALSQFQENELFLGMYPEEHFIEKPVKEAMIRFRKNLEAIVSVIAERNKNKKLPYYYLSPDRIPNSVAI
Put plainly: Inhibition of 5-lipoxygenase, in vitro. The format is biochemical. The conditions noted are these: 100,000×g supernatant of RBL-1 homogenate, [1-14C]-arachidonic acid and Ca++; average; read-out: average IC50, inhibition of 5-lipoxygenase (5-HETE synthesis). On the procedure: The compounds of the invention are evaluated with respect to 5-lipoxygenaseinhibition according to the following assay procedure.
The 100,000×g supernatant fraction of Rat Basophilic Leukemia Cell Homogenate (RBL-1) serves as a 5-lipoxygenase enzyme source. The enzyme is incubated with [1-^14 C)-arachidonic acid and Ca++ in the presence and absence of test compound. The product of 5-lipoxygenase, 5-hydroxyeicosa-tetraenoic acid (5-HETE), is separated by thin-layer chromatography and measured by radioactivity. A compound inhibiting 5-HETE synthesis by 30% or more is considered active at that concentration.

The test system of assay [1] is superoxide generation by FMLP-stimulated human neutrophils. Put plainly: Human neutrophil superoxide generation (FMLP-stimulated, cytochrome C reduction). The format is cell-based. The settings on record: pH 7.2, 37° C., preincubated 3 minutes, average, read-out: average IC50, inhibition of superoxide generation. On the procedure: The compounds of the invention are evaluated with respect to superoxide modulating activity according to the following assay procedure:
Superoxide generation by formyl-methionyl-leucyl-phenylalanine (FMLP)-stimulated neutrophils was quantitated by the reduction of cytochrome C (Badwey, J. A., Curnutte, J. T. and Karnovsky, M. L., cis-Polyunsaturated fatty acids induce high levels of superoxide production by human neutrophils. J. Biol. Chem. 256:12640-12643, 1981.) To 5 million neutrophils in 2.85 ml of Krebs-Ringer phosphate buffer, pH 7.2, 50 ul of inhibitor (in 10% DMSO/buffer), and 50 ul ferricytochrome C (5 mM, stock) were added and preincubated for 3 minutes at 37° C. Absorption measurements at 550 nm were recorded at start of preincubation. Fifty ul FMLP (6 uM, stock) was added to initiate reaction. A plateau was reached within 3 minutes and this reading minus the initial reading (before addition of FMLP) was used to calculate nanomoles of superoxide generated based on a molar extinction coefficient of 2.1×10^4 cm^-1 mole^-1.
Human neutrophils were isolated from freshly drawn blood of healthy donors. Two ml of 5% dextran (MW 200,000-300,000) in saline was added to 10 ml aliquots of blood, mixed and placed upright for 45 min. at 37° C. Approx. […] The red cell lysing procedure was repeated, the cells suspended in appropriate buffer (depending on assay) and counted.

The conditions of assay [2]: compared with histamine; background information; cited from earlier work.

pIC50: −log10 of the molar value. Structures can show the parent of a compound that is named as a salt.

For `C[C@H](Sc1cc(C(C)(C)C)c(O)c(C(C)(C)C)c1)[C@@H](C)OCC(=O)NCCS(=O)(=O)O` (relative stereo) [Example 5, 2-[[[2S*-[[3,5-bis(1,1-dimethylethyl)-4-hydroxyphenyl]thio]-1R*-methylpropoxy]acetyl]amino]ethanesulfonic acid, potassium salt], the results for the pIC50 (on 5-lipoxygenase; in assay [1]) were 5.49 and 4.06, respectively. As for `CCCCC/C=C\C\C=C/C=C/C=C/[C@@H](SC[C@H](NC(=O)CC[C@H](N)C(=O)O)C(=O)NCC(=O)O)[C@@H](O)CCCC(=O)O` [LTC4], the “potency in causing long lasting bronchoconstricting effects relative to histamine” value in assay [2] is given as “at least 100 times”.
